Measured values published in patent US8093395B2 (priority 2007, dated 2012).
Like-named read-outs stand apart in the source and are kept apart here.

Tests used:
Test in all cases: biochemical
Format in all cases: biochemical
Details in all cases: for activity at 1 µM: pH 5.5, read-out: Sphingomyelinase Activity (%)
Bacillus cereus-SMase [1] = biological target: T1, Bacillus cereus-SMase (Bacillus cereus, UniProt P11889)
Description: Experiment 3: Influence of Compound (1a) and Compound (1b) on the ^14C-Sphingomyelin (^14C-Sphingomyelin) Decomposition Activity of Bacillus cereus-SMase
(§1) (i) Solution of Compound (1a)
(§2) Compound (1a) was dissolved in MeOH and adjusted to 1.7 mM and 17 mM.
(§3) (ii) Solution of Compound (1b)
(§4) Compound (1b) was dissolved in MeOH and adjusted to 1.7 mM and 17 mM.
(iii) Preparation of TX-Buffer
0.5 g of Triton X-100 was dissolved in 100 ml of 0.02 M TB.
[Method] 30 ng/ml Bacillus cereus-SMase was mixed with the solution of Compound (1a) with each concentration or the solution of Compound (1b) with each concentration, and the mixture was adjusted with TX-buffer (pH 5.5) to a total volume of 200 μl and pre-treated for 10 minutes at 37° C., after which 10 μl of ^14C-sphingomyelin was added to the reaction mixture, and the resulting mixture was incubated for 30 minutes at 37° C. 600 μl of a solvent to stop the reaction (stop solution; CHCl3:MeOH=1:2) was added to the reaction mixture and the resulting mixture was stirred for 30 seconds twice, and centrifuged for 20 minutes at 2,000 rpm, after which the upper layer was measured using a liquid scintillation counter.

Bacillus cereus-SMase [2] = biological target: T1, Bacillus cereus-SMase; remark: listed apart in the source
Bacillus cereus-SMase [3] = biological target: T1, Bacillus cereus-SMase; remark: listed apart in the source
Description: Preparation of Sphingomyelin-Liposome (SM-Liposome)
The sphingomyelin (SM), cholesterol, and CF solution used were as follows:
SM: sphingomyelin from bovin brain, code: 32156-74
Cholesterol: Nakarai code: 08721-75
CF solution: 5(6)-carbosyfluorescein; SIGMA C8166, FW=460.4
About 100 μl of 1 N sodium hydroxide (NaOH) was added to CF (27 mg/3 ml, DW) to prepare a CF solution. At this time, NaOH was added to give a pH of 7 to 8 as measured by a pH test paper.
Liposome Preparation Method
59 μl of a solution obtained by dissolving 2 mg of sphingomyelin (SM) in 160 μl of a mixed solvent of chloroform (CHCl3) and methanol (MeOH) (CHCl3:MeOH=2:1) was mixed with 20 μl of a solution obtained by dissolving 19.3 mg of cholesterol in 1 ml of CHCl3; the mixture was homogeneously spread to the bottom of a glass test tube while the CHCl3 and MeOH were distilled under nitrogen, and dried in a desiccator for 30 minutes. The CF solution was warmed to 55° C., and 80 μl of the CF solution was added with stirring to the SM from which the solvent was distilled (the molar ratio of […]: 1:1), and a procedure of placing the mixture in a water bath at 55° C. and stirring the mixture was repeated three times at 30-second intervals. A suitable amount of TBS was added, the mixture was centrifuged for 20 minutes at 15,000 rpm and 4° C., and the supernatant was removed. A suspension of the resulting product in 300 μl of TBS was used as a liposome.
Experiment 2: Influence of Compound (1a) and Compound (1b) on SM-Liposome Degradation Activity of Bacillus cereus-SMase
as §1, §2, §3, §4
[Method] Bc-SMase (50 ng/ml) was mixed with the solution of Compound (1a) with each concentration or the solution of Compound (1b) with each concentration, and the mixture was adjusted with GTBS (pH 5.5) to a total volume of 180 μl and pre-treated for 10 minutes at 37° C., after which 20 μl of the SM-liposome was added to the resulting reaction mixture and incubated for 30 minutes at 37° C. The reaction mixture was measured using a fluorometer (Corona Electric Co., Ltd.; MTP32 Microplate Reader, Ex490, Em530).

T1 sequence (P11889 28-333): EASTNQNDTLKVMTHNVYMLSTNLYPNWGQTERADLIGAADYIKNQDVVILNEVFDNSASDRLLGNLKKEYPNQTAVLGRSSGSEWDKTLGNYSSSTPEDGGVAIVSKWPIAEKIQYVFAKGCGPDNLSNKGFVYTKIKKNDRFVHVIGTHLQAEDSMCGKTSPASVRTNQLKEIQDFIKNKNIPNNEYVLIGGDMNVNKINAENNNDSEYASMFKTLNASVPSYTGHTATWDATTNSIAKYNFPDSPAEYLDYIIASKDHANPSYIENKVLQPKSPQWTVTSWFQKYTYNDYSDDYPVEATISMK

Row | Compound | sphingomyelinase activity was inhibited by (Table 3) (Bacillus cereus-SMase [1]; 100-μM solution, 14C-sphingomyelin decomposition) | activity at 1 µM (Bacillus cereus-SMase [1]) [%] | sphingomyelinase activity was inhibited by (text summary of Table 1) (Bacillus cereus-SMase [2]; 100-μM solution, sheep erythrocyte hemolysis) | activity at 1 µM (Bacillus cereus-SMase [2]) [%] | inhibition of sphingomyelinase activity (text summary of Table 2) (Bacillus cereus-SMase [3]; 100-μM solution, SM-liposome degradation) | activity at 1 µM (Bacillus cereus-SMase [3]) [%] | inhibitory effect compared with Compound (1a) (Bacillus cereus-SMase [1]; 1 to 100 μM, 14C-sphingomyelin decomposition) | inhibitory effect compared with Compound (1a) (Bacillus cereus-SMase [2]; 1 to 100 μM, sheep erythrocyte hemolysis) | inhibitory effect compared with Compound (1a) (Bacillus cereus-SMase [3]; 1 to 100 μM, SM-liposome degradation)
1 | CCCCCCCCCCCCC/C=C/[C@@H](O)C(COCc1cccc(-c2ccccn2)n1)NC(=O)CCCCC (stereo partly drawn) [Compound (1a)] | about 25% | 98.6 ± 1.3 | about 30% | 98.2 ± 1.4 | substantially completely inhibited | 99 ± 0.2 |  |  | 
2 | CCCCCCCCCCCCC/C=C/[C@@H](OCc1cccc(-c2ccccn2)n1)C(CO)NC(=O)CCCCC (stereo partly drawn) [Compound (1b)] |  | 98.2 ± 2.3 |  | 96.2 ± 2.7 |  | 99.1 ± 0.3 | did not show as potent an inhibitory effect as Compound (1a) | did not show as potent an inhibitory effect as Compound (1a) | did not show as potent an inhibitory effect as Compound (1a)
